Test results from PMC8808744 (ACS chemical biology, 2019).
In brackets after ≈: the same amount, converted by molar mass.

Legend:
[1] = test system: wild-type P. aeruginosa PAO1; experiment: Growth-curve assay in liquid medium; type: cell-based, Pseudomonas aeruginosa; details: CAZ at 0.28 μg mL^−1, MEM at 0.14 μg mL^−1 (sub-MIC)
P. aeruginosa PAO1 [2] = experiment: MIC against parent strain PAO1; type: cell-based; details: Pseudomonas aeruginosa
Slt = Slt (Pseudomonas aeruginosa, UniProt Q9HZI6); experiment: biochemical; type: binding
SltB1 = SltB1 (Pseudomonas aeruginosa, UniProt Q9HX24); experiment: biochemical; type: binding
MltDsol = MltDsol (Pseudomonas aeruginosa, UniProt Q9I2T2); experiment: biochemical; type: binding
Ec MltGsol = Ec MltGsol (Escherichia coli, UniProt P28306); experiment: Dissociation constant by non-denaturing mass spectrometry, E. coli MltGsol; type: binding
P. aeruginosa PAO1 [3] = type: cell-based, Pseudomonas aeruginosa

Chain of MltDsol (Q9I2T2 32-534 limits assumed): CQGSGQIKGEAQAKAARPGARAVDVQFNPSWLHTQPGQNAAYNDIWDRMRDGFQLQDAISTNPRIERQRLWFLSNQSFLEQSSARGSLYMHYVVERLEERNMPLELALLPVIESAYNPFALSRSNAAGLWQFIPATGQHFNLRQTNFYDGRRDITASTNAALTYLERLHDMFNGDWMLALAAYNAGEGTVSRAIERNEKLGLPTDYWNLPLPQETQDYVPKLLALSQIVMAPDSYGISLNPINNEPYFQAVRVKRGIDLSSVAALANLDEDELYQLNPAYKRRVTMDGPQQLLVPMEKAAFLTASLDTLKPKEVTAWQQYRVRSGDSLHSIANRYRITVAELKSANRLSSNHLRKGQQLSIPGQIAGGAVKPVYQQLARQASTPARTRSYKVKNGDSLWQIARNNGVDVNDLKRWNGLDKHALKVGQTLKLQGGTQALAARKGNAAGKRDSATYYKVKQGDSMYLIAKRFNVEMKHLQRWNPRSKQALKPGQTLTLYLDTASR
Chain of Ec MltGsol (P28306 25-340 with tags or gaps limits assumed): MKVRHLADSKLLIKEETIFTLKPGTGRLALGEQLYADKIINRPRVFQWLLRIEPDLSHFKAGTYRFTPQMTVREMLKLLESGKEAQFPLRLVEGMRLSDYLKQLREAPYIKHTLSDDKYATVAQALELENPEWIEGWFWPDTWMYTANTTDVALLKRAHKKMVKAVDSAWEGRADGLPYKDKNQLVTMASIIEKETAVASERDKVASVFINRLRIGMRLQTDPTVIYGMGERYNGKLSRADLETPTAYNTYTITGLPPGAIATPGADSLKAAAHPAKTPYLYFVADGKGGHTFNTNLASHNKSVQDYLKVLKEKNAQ
Chain of Slt (Q9HZI6 25-642 limits assumed): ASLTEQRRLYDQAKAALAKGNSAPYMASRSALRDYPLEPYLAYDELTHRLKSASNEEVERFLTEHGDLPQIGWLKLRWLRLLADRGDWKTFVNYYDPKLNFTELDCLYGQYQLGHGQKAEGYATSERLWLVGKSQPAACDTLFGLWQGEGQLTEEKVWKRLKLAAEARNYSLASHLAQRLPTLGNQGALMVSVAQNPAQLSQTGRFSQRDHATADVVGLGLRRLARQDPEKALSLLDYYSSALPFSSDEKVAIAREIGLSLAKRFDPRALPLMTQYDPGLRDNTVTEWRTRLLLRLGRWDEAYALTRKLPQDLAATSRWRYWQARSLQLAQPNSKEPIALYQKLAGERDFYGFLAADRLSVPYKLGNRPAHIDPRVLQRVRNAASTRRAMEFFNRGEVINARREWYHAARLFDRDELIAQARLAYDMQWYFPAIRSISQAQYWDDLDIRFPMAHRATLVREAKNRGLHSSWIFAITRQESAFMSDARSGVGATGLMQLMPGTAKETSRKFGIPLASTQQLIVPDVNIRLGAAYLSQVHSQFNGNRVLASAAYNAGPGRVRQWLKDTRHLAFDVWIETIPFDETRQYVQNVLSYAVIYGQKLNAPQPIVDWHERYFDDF
Chain of SltB1 (Q9HX24 34-340 limits assumed): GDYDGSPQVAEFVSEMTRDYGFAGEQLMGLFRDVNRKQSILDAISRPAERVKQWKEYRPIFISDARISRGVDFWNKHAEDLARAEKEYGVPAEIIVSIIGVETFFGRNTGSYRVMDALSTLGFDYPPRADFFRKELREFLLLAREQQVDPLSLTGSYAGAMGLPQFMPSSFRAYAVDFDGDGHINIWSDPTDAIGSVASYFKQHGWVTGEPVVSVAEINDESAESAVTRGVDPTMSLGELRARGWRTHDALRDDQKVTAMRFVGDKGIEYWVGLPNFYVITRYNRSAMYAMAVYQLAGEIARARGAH

| SMILES | growth of wild-type PAO1 with β-lactam alone [1] | MIC (P. aeruginosa PAO1 [2]) | Kd (Slt) | Kd (SltB1) | Kd (MltDsol) | Kd (Ec MltGsol) | recovery of CAZ/bulgecin A-damaged bacteria (P. aeruginosa PAO1 [3]) |
| --- | --- | --- | --- | --- | --- | --- | --- |
| CC(C)(O/N=C(\C(=O)N[C@@H]1C(=O)N2C(C(=O)[O-])=C(C[n+]3ccccc3)CS[C@H]12)c1csc(N)n1)C(=O)O [CAZ, Ceftazidime] | normal growth | 0.5 µg/mL (≈ 0.915 µM) | – | – | – | – | – |
| CC(=O)N[C@H]1[C@H](O[C@H]2C[C@@H](C(=O)NCCS(=O)(=O)O)N[C@@H]2CO)O[C@H](CO)[C@@H](OS(=O)(=O)O)[C@@H]1O [Bulgecin A] | – | – | 8.5 ± 1.1 µM | 160 ± 21 µM | 1.4 ± 0.3 µM | 24 ± 5.1 µM | delayed recovery |
| C[C@@H](O)[C@H]1C(=O)N2C(C(=O)O)=C(S[C@@H]3CN[C@H](C(=O)N(C)C)C3)[C@H](C)[C@H]12 [MEM, Meropenem] | normal growth | 0.5 µg/mL (≈ 1.3 µM) | – | – | – | – | – |
